Assays:
Assay type in all cases: in vivo
[1] = test system: Diabrotica Balteata (Corn Root Worm); assay: Activity against Diabrotica balteata (corn root worm), maize sprouts sprayed; details: 96 h, application rate of 200 ppm, L2 larvae, 4 days after infestation, read-out: effect in at least one of the two categories (mortality or growth inhibition)
Experimental: Maize sprouts placed onto an agar layer in 24-well microtiter plates were treated with aqueous test solutions prepared from 10′000 ppm DMSO stock solutions by spraying. After drying, the plates were infested with L2 larvae (6 to 10 per well). The samples were assessed for mortality and growth inhibition in comparison to untreated samples 4 days after infestation.

[2] = test system: Myzus persicae (Green Peach Aphid); assay: Activity against Myzus persicae (green peach aphid), feeding/contact activity; details: 144 h, application rate of 200 ppm, mixed ages, 6 days after infestation
Experimental: Sunflower leaf discs were placed onto agar in a 24-well microtiter plate and sprayed with aqueous test solutions prepared from 10′000 ppm DMSO stock solutions. After drying, the leaf discs were infested with an aphid population of mixed ages. The samples were assessed for mortality 6 days after infestation.

[3] = test system: Euschistus heros (Neotropical Brown Stink Bug); assay: Activity against Euschistus heros (neotropical brown stink bug), soybean leaves sprayed; details: 120 h, application rate of 200 ppm, N2 nymphs, 5 days after infestation, read-out: effect in at least one of the two categories (mortality or growth inhibition)
Experimental: Soybean leaves on agar in 24-well microtiter plates were sprayed with aqueous test solutions prepared from 10′000 ppm DMSO stock solutions. After drying the leaves were infested with N2 nymphs. The samples were assessed for mortality and growth inhibition in comparison to untreated samples 5 days after infestation.

[4] = test system: Bemisia tabaci (Cotton White Fly); assay: Activity against Bemisia tabaci (cotton white fly), cotton leaf discs sprayed; details: foliar, 144 h, application rate of 200 ppm, adult white flies, 6 days after incubation
Experimental: Cotton leaf discs were placed on agar in 24-well microtiter plates and sprayed with aqueous test solutions prepared from 10′000 ppm DMSO stock solutions. After drying the leaf discs were infested with adult white flies. The samples were checked for mortality 6 days after incubation.

[5] = test system: Spodoptera littoralis (Egyptian Cotton Leaf Worm); assay: Activity against Spodoptera littoralis (Egyptian cotton leaf worm), cotton leaf discs sprayed; details: foliar, 72 h, application rate of 200 ppm, L1 larvae, 3 days after infestation, read-out: control (mortality, anti-feeding effect, growth inhibition)
Experimental: Cotton leaf discs were placed onto agar in 24-well microtiter plates and sprayed with aqueous test solutions prepared from 10′000 ppm DMSO stock solutions. After drying the leaf discs were infested with five L1 larvae. The samples were assessed for mortality, anti-feeding effect, and growth inhibition in comparison to untreated samples 3 days after infestation. Control of Spodoptera littoralis by a test sample is given when at least one of the categories mortality, anti-feedant effect, and growth inhibition is higher than the untreated sample.

[6] = test system: Carpocapsa (Cydia) Pomonella (Codling Moth); assay: Activity against Carpocapsa (Cydia) pomonella (codling moth), larvicide, feeding/contact; details: 336 h, application rate of 12.5 ppm, L1 larvae, 14 days after infestation, read-out: effect in at least one of the two categories (mortality or growth inhibition)
Experimental: Diet cubes coated with paraffin were sprayed with diluted test solutions in an application chamber. After drying off the treated cubes (10 replicates) were infested with 1 L1 larvae. Samples were incubated at 26-27° C. and checked 14 days after infestation for mortality and growth inhibition. The following compounds gave an effect of at least 80% in at least one of the two categories (mortality or growth inhibition) at an application rate of 12.5 ppm: P1, P2, P3, P5, P9, P10, P11, P12, P14, P17, P19, P20, P21, P23, P24, P30, P31.

[7] = test system: Plutella xylostella (Diamond Back Moth); assay: Activity against Plutella xylostella (diamond back moth), artificial diet; details: 192 h, application rate of 200 ppm, eggs, 8 days after infestation, read-out: effect in at least one of the two categories (mortality or growth inhibition)
Experimental: 24-well microtiter plates with artificial diet were treated with aqueous test solutions prepared from 10′000 ppm DMSO stock solutions by pipetting. After drying, Plutella eggs were pipetted through a plastic stencil onto a gel blotting paper and the plate was closed with it. The samples were assessed for mortality and growth inhibition in comparison to untreated samples 8 days after infestation.

[8] = test system: Nilaparvata lugens (Brown Plant Hopper); assay: Activity against Nilaparvata lugens (brown plant hopper), larvicide, systemic into water; details: 168 h, application rate of 12.5 ppm, N3 nymphs, 7 days after infestation
Experimental: Larvicide, systemic into water Rice plants cultivated in a nutritive solution were treated with the diluted test solutions into nourishing cultivation system. 1 day after application plants were infested with ˜20 N3 nymphs. 7 days after infestation samples were assessed for mortality and growth regulation.

[9] = test system: Myzus persicae (Green Peach Aphid); assay: Activity against Myzus persicae (green peach aphid), systemic activity; details: 144 h, test rate of 24 ppm, pea seedling roots in test solution, 6 days
Experimental: Roots of pea seedlings infested with an aphid population of mixed ages were placed directly into aqueous test solutions prepared from 10′000 DMSO stock solutions. The samples were assessed for mortality 6 days after placing seedlings into test solutions.

[10] = test system: Chilo suppressalis (Striped Rice Stemborer); assay: Activity against Chilo suppressalis (striped rice stemborer), artificial diet; details: 144 h, application rate of 200 ppm, L2 larvae, 6 days after infestation, read-out: control (mortality, anti-feeding effect, growth inhibition)
Experimental: 24-well microtiter plates with artificial diet were treated with aqueous test solutions prepared from 10′000 ppm DMSO stock solutions by pipetting. After drying, the plates were infested with L2 larvae (6-8 per well). The samples were assessed for mortality, anti-feeding effect, and growth inhibition in comparison to untreated samples 6 days after infestation. Control of Chilo suppressalis by a test sample is given when at least one of the categories mortality, anti-feedant effect, and growth inhibition is higher than the untreated sample.

[11] = test system: Frankliniella occidentalis (Western Flower Thrips); assay: Activity against Frankliniella occidentalis (western flower thrips), sunflower leaf discs sprayed; details: foliar, 168 h, application rate of 200 ppm, population of mixed ages, 7 days after infestation
Experimental: Sunflower leaf discs were placed on agar in 24-well microtiter plates and sprayed with aqueous test solutions prepared from […] stock solutions. After drying the leaf discs were infested with a Frankliniella population of mixed ages. The samples were assessed for mortality 7 days after infestation.

[12] = test system: Tetranychus urticae (Two-Spotted Spider Mite); assay: Activity against Tetranychus urticae (two-spotted spider mite), bean leaf discs sprayed; details: foliar, 192 h
Experimental: Bean leaf discs on agar in 24-well microtiter plates were sprayed with aqueous test solutions prepared from 10′000 ppm DMSO stock solutions. After drying the leaf discs were infested with a mite population of mixed ages. The samples were assessed for mortality on mixed population (mobile stages) 8 days after infestation.

CCS(=O)(=O)c1cc(C(C)(C)C#N)cnc1-c1cc2c(cn1)N(CC(F)(F)C(F)(F)F)C(=O)CC2 [P11, 2-[5-ethylsulfonyl-6-[2-oxo-1-(2,2,3,3,3-pentafluoropropyl)-3,4-dihydro-1,7-naphthyridin-6-yl]-3-pyridyl]-2-methyl-propanenitrile]
≥ 80%: percent effect (mortality or growth inhibition) at 200 ppm [1] | mortality at 200 ppm [2] | percent effect (mortality or growth inhibition) at 200 ppm [3] | mortality at 200 ppm [4] | mortality at 200 ppm [5] | percent effect (mortality or growth inhibition) at 12.5 ppm [6] | percent effect (mortality or growth inhibition) at 200 ppm [7] | mortality at 12.5 ppm [8] | mortality at 24 ppm [9] | mortality at 200 ppm [10]

CCSc1cc(C2(C#N)CC2)cnc1-c1cc2c(cn1)N(CC(F)(F)C(F)(F)F)C(=O)OC2 [P4, 1-[5-ethylsulfanyl-6-[2-oxo-1-(2,2,3,3,3-pentafluoropropyl)-4H-pyrido[3,4-d][1,3]oxazin-6-yl]-3-pyridyl]cyclopropanecarbonitrile]
≥ 80%: percent effect (mortality or growth inhibition) at 200 ppm [1] | mortality at 200 ppm [2] | percent effect (mortality or growth inhibition) at 200 ppm [3] | mortality at 200 ppm [5] | percent effect (mortality or growth inhibition) at 200 ppm [7] | mortality at 200 ppm [11] | mortality at 200 ppm [10]

CCS(=O)(=O)c1cc(C2(C#N)CC2)cnc1-c1cc2c(cn1)N(CC(F)(F)C(F)(F)F)C(=O)OC2 [P3, 1-[5-ethylsulfonyl-6-[2-oxo-1-(2,2,3,3,3-pentafluoropropyl)-4H-pyrido[3,4-d][1,3]oxazin-6-yl]-3-pyridyl]cyclopropanecarbonitrile]
≥ 80%: percent effect (mortality or growth inhibition) at 200 ppm [1] | mortality at 200 ppm [2] | percent effect (mortality or growth inhibition) at 200 ppm [3] | mortality at 200 ppm [4] | mortality at 200 ppm [5] | percent effect (mortality or growth inhibition) at 12.5 ppm [6] | percent effect (mortality or growth inhibition) at 200 ppm [7] | mortality at 12.5 ppm [8] | mortality at 200 ppm [10]

CCS(=O)(=O)c1cc(C2(C#N)CC2)cnc1-c1cc2c(cn1)N(CC(F)(F)C(F)(F)F)C(=O)CC2 [P12, 1-[5-ethylsulfonyl-6-[2-oxo-1-(2,2,3,3,3-pentafluoropropyl)-3,4-dihydro-1,7-naphthyridin-6-yl]-3-pyridyl]cyclopropanecarbonitrile]
≥ 80%: percent effect (mortality or growth inhibition) at 200 ppm [1] | mortality at 200 ppm [2] | percent effect (mortality or growth inhibition) at 200 ppm [3] | mortality at 200 ppm [4] | mortality at 200 ppm [5] | percent effect (mortality or growth inhibition) at 12.5 ppm [6] | percent effect (mortality or growth inhibition) at 200 ppm [7] | mortality at 12.5 ppm [8] | mortality at 24 ppm [9] | mortality at 200 ppm [10]

CCS(=O)(=O)c1cc(C(C)(C)F)cnc1-c1cc2c(cn1)N(CC(F)(F)C(F)(F)F)C(=O)CC2 [P23, 6-[3-ethylsulfonyl-5-(1-fluoro-1-methyl-ethyl)-2-pyridyl]-1-(2,2,3,3,3-pentafluoropropyl)-3,4-dihydro-1,7-naphthyridin-2-one]
≥ 80%: percent effect (mortality or growth inhibition) at 200 ppm [1] | percent effect (mortality or growth inhibition) at 200 ppm [3] | mortality at 200 ppm [5] | percent effect (mortality or growth inhibition) at 12.5 ppm [6] | percent effect (mortality or growth inhibition) at 200 ppm [7] | mortality at 12.5 ppm [8] | mortality at 200 ppm [12] | mortality at 200 ppm [10]

CCS(=O)(=O)c1cc(C2(C#N)CC2)cnc1-c1cc2c(cn1)N(CC(F)(F)F)C(=O)CC2 [P2, 1-[5-ethylsulfonyl-6-[2-oxo-1-(2,2,2-trifluoroethyl)-3,4-dihydro-1,7-naphthyridin-6-yl]-3-pyridyl]cyclopropanecarbonitrile]
≥ 80%: percent effect (mortality or growth inhibition) at 200 ppm [1] | mortality at 200 ppm [2] | percent effect (mortality or growth inhibition) at 200 ppm [3] | mortality at 200 ppm [4] | mortality at 200 ppm [5] | percent effect (mortality or growth inhibition) at 12.5 ppm [6] | percent effect (mortality or growth inhibition) at 200 ppm [7] | mortality at 12.5 ppm [8] | mortality at 24 ppm [9] | mortality at 200 ppm [10]

CCS(=O)(=O)c1cccnc1-c1cc2c(cn1)N(CC(F)(F)C(F)(F)F)C(=O)CC2 [P1, 6-(3-ethylsulfonyl-2-pyridyl)-1-(2,2,3,3,3-pentafluoropropyl)-3,4-dihydro-1,7-naphthyridin-2-one]
≥ 80%: percent effect (mortality or growth inhibition) at 200 ppm [1] | mortality at 200 ppm [2] | percent effect (mortality or growth inhibition) at 200 ppm [3] | mortality at 200 ppm [5] | percent effect (mortality or growth inhibition) at 12.5 ppm [6] | percent effect (mortality or growth inhibition) at 200 ppm [7] | mortality at 12.5 ppm [8] | mortality at 24 ppm [9] | mortality at 200 ppm [10]

Source: patent US20240122182A1, “PESTICIDALLY ACTIVE HETEROCYCLIC DERIVATIVES WITH SULFUR CONTAINING SUBSTITUENTS” (SYNGENTA CROP PROTECTION AG, priority 2021, published 2024)
